The record followed here is ChEMBL document CHEMBL1165895, “A novel series of cytotoxic iridoid glucosides derived from aucubin: design, synthesis and structure-activity relationships” (Eur J Med Chem, 2010).

In test [1] the test system is L1210. The test can be described thus: Cytotoxicity against mouse L1210 cells after 48 hrs by microculture tetrazolium assay. The class given is functional, cell-based. The note with it: L1210, 48 h.
The nature of test [2]: Cytotoxicity against human KB3-1 cells after 96 hrs by microculture tetrazolium assay. The note with it: KB 3-1, 96 h. The test is classed as functional, cell-based.
Test [3] has as its system L1210. The test can be described thus: Cell cycle arrest in mouse L1210 cells assessed as accumulation at G2M phase at 10 uM after 21 hrs using propidium iodide staining by flow cytometry. The class given is functional.
Test [4] deals with L1210. The test can be described thus: Cell cycle arrest in mouse L1210 cells assessed as accumulation at G1 phase at 10 uM after 21 hrs using propidium iodide staining by flow cytometry. The class given is functional.
Test [5] deals with L1210. Put plainly: Cell cycle arrest in mouse L1210 cells assessed as accumulation at S phase at 10 uM after 21 hrs using propidium iodide staining by flow cytometry. The class given is functional.

`CC(C)(C)C(=O)OCC1=C[C@@H](OC(=O)C(C)(C)C)C2=CC(=O)O[C@@H](O[C@@H]3O[C@H](COC(=O)C(C)(C)C)[C@@H](OC(=O)C(C)(C)C)[C@H](OC(=O)C(C)(C)C)[C@H]3OC(=O)C(C)(C)C)[C@H]12`: the IC50 stood at 4 µM with L1210 [1] and 0.42 µM in test [2]. Also, the Activity amounted to 45% in the test on L1210 [3], 36% with L1210 [4] and 19% in the test on L1210 [5].
In the case of `CC1=C[C@@H](OC(=O)C(C)(C)C)C2=CC(=O)O[C@@H](O[C@@H]3O[C@H](COC(=O)C(C)(C)C)[C@@H](OC(=O)C(C)(C)C)[C@H](OC(=O)C(C)(C)C)[C@H]3OC(=O)C(C)(C)C)[C@H]12`, the half-maximal inhibitory concentration (IC50) in the test on L1210 [1] is 24.8 µM; in test [2], 7.2 µM.
